Laboratory results reported in patent US4160768A, “Anti-inflammatory 3-benzofuranyl imidazothiazole” (Diamond Shamrock Corporation, priority 1978, dated 1979).
Counter-ions that a name gives are not always drawn.

Columns and labels:
[1] = carrageenin-induced edema in the hind paw of the rat (modified Winter et al.); type: in vivo; conditions: oral; for Reduction (%) (carrageenin edema): Table II
Procedure: (§1) The procedure used for measuring the inhibition of carrageenin-induced edema is a slight modification of the method of Winter et al., Proc. Soc. Explt. Biol. Med. 111: 544 (1962). The device used for measurement of the paw volume is an adaptation of the water displacement procedure described by Adamkiewicz et al., Can. J. Biochem. Physiol. 33: 332 (1955). The above compounds were studied for their effectiveness in preventing the edema caused by the intraplantar injection of 0.05 ml of a sterile 1.0% solution of carrageenin. Compounds were administered orally, except when indicated as intraperitoneally (i.p.), one hour prior to the injection of the carrageenin into the left hind paw of rats. At peak swelling time (3 hours) the volume of edema was calculated by differential paw volumes.
Table I (in which Ph=phenyl) sets forth results obtained at the indicated dosages with compounds (or their salts) of the formula [drawing 8]
Following the procedure set forth in Example 4, hydrated compounds according to the following formula were evaluated for antiinflammatory effect with the results shown in Table II: [drawing 9]
Certain of the compounds of the invention were further tested to determine their ED50 values. […] Typical results of these tests appear in Table III.

[2] = adrenalectomized assay (carrageenin edema in adrenalectomized rats); type: in vivo, Adrenalectomized Sprague Dawley Male Rats; conditions: Rattus norvegicus, po, 3 h; 25 mg/kg; read-out: % Reduction (adrenalectomized rats)
Procedure: as §1
Next, certain of the compounds were subjected to a secondary screen designated the adrenalectomized assay. In this series of tests, the method used was identical to that described above, except that the animals used were adrenalectomized several days prior to assay. Since the results in the nonadrenalectomized animals were similar to those obtained in the adrenalectromized animals, it can be inferred that the antiinflammatory activity of the test compounds was not caused by the release of endogeneous adrenocortical steriods.

[3] = Rattus norvegicus, po, 3 h, Table I, 40 mg/kg, 1 h before carrageenin, 3 h, read-out: Reduction % (carrageenin edema)
[4] = Rattus norvegicus, po, 3 h, Table I, 25 mg/kg, 1 h before carrageenin, 3 h, read-out: Reduction % (carrageenin edema)

Clc1ccc(C[N+]2=C3SC=C(c4ccccc4)N3CC2)cc1Cl [Compound 20]
inhibition in vivo at 20 mg/kg ([1]; Rattus norvegicus, po, 3 h, Table I, 20 mg/kg, 1 h before carrageenin, 3 h, read-out: Reduction % (carrageenin edema)): 36%

Brc1ccc(C2=CSC3=NCCN23)cc1 [Compound 21]
inhibition in vivo at 40 mg/kg [1, 3]: 49%

C#CC[N+]1=C2SC=C(c3ccc(Br)cc3)N2CC1 [Compound 22]
inhibition in vivo at 100 mg/kg ([1]; Rattus norvegicus, po, 3 h, Table I, 100 mg/kg, 1 h before carrageenin, 3 h, read-out: Reduction % (carrageenin edema)): 36%

C#CC(C)[N+]1=C2SC=C(c3ccc(Br)cc3)N2CC1 (stereo not drawn) [Compound 23]
inhibition in vivo at 40 mg/kg [1, 3]: 27%

ClCC=CC[N+]1=C2SC=C(c3ccc(Br)cc3)N2CC1 [Compound 24]
inhibition in vivo at 60 mg/kg ([1]; Rattus norvegicus, po, 3 h, Table I, 60 mg/kg, 1 h before carrageenin, 3 h, read-out: Reduction % (carrageenin edema)): 20%

CC1=CSC2=NCCN12 [Compound 25]
inhibition in vivo at 150 mg/kg ([1]; Rattus norvegicus, po, 3 h, Table I, 150 mg/kg, 1 h before carrageenin, 3 h, read-out: Reduction % (carrageenin edema)): 44%

C#CC[N+]1=C2SC=C(C)N2CC1 [Compound 26]
inhibition in vivo at 40 mg/kg [1, 3]: 31%

C1=C(c2cc3ccccc3o2)N2CCN=C2S1 [Compound 27, 3-(2-benzofuranyl)-5,6-dihydro-4H-imidazo[2,1-b] thiazole]
inhibition in vivo at 40 mg/kg [1, 3]: 40%

Clc1ccc(C2=CSC3=NCCCN23)cc1 [Compound 28]
inhibition in vivo at 25 mg/kg [1, 4]: 29%

CCC1=C(c2ccccc2)N2CCCN=C2S1 [Compound 29, 2-ethyl-3-phenyl-4,5,6,7-tetrahydrothiazole[3,2-a] pyrimidine hydrobromide]
inhibition in vivo at 25 mg/kg [2]: 18% | inhibition in vivo at 50 mg/kg ([1]; Rattus norvegicus, po, 3 h, Table I, 50 mg/kg, 1 h before carrageenin, 3 h, read-out: Reduction % (carrageenin edema)): 76%

C1=C(c2ccccc2)N2CCCN=C2S1 [Compound 30]
inhibition in vivo at 40 mg/kg [1, 3]: 25%

CC1=C(c2ccccc2)N2CCCN=C2S1 [Compound 31]
inhibition in vivo at 40 mg/kg [1, 3]: 48%

O=[N+]([O-])c1ccc(C2=CSC3=NCCCN23)cc1 [Compound 32]
inhibition in vivo at 25 mg/kg [1, 4]: 20%

CC1=C(c2ccc(Cl)cc2)N2CCCN=C2S1 [Compound 33]
inhibition in vivo at 10 mg/kg ([1]; Rattus norvegicus, po, 3 h, Table I, 10 mg/kg, 1 h before carrageenin, 3 h, read-out: Reduction % (carrageenin edema)): 22%

OC1(c2ccccc2)CSC2=NCCN21 (stereo not drawn) [Compound 34]
Reduction (%) (carrageenin edema) ([1]; 100 mg/kg): 70%

CC1SC2=NCCN2C1(O)c1ccccc1 (stereo not drawn) [Compound 35]
Reduction (%) (carrageenin edema) ([1]; 150 mg/kg): 68%

OC1(c2ccc(Cl)cc2)CSC2=NCCN21 (stereo not drawn) [Compound 36]
Reduction (%) (carrageenin edema) ([1]; 25 mg/kg): 57%

OC1(c2ccccc2)CSC2=NCCCN21 (stereo not drawn) [Compound 37]
Reduction (%) (carrageenin edema) ([1]; 50 mg/kg): 52%

OC1(c2ccc(Cl)cc2)CSC2=NCCCN21 (stereo not drawn) [Compound 38]
Reduction (%) (carrageenin edema) ([1]; 100 mg/kg): 76%

COc1ccc(C2(O)CSC3=NCCCN32)cc1 (stereo not drawn) [Compound 39]
Reduction (%) (carrageenin edema) ([1]; 40 mg/kg): 27%
